Measurements as given in patent US20190055576A1, “USE OF HERBICIDE-TOLERANT PROTEIN” (BEIJING DABEINONG TECHNOLOGY GROUP CO., LTD., priority 2016, published 2019).

Tests used:
Assay type in all cases: in vivo
[1] = test system: wild-type Arabidopsis thaliana plants; assay: Herbicide tolerance of wild-type Arabidopsis thaliana plants, resistance classes counted after spraying; conditions: 1-fold field concentration (g ai/ha: Sulfometuron-methyl 30, iodosulfuron-methyl 10, mesosulfuron 14, oxasulfuron 60), 14 days after spraying
Source text: (§1) T1 transformants were initially selected from the background of untransformed seeds using a glufosinate selection scheme. About 40000 T1 seeds were screened, and 380 T1 positive transformants (PAT gene) were identified with a transformation efficiency of about 0.95%. The plants that were transformed with the recombinant expression vector DBN100632 were Arabidopsis thaliana plants having an ALT-1-01 nucleotide sequence located in the cytoplasm introduced (At cytoplasmic ALT-1-01), and the plants that were transformed with the recombinant expression vector DBN100631 were Arabidopsis thaliana plants having an ALT-1-01 nucleotide sequence located in the chloroplast introduced (At chloroplastic ALT-1-01); the plants that were transformed with the recombinant expression vector DBN100634 were Arabidopsis thaliana plants having an ALT-2-01 nucleotide sequence located in the cytoplasm introduced (At cytoplasmic ALT-2-01), and the plants that were transformed with the recombinant expression vector DBN100633 were Arabidopsis thaliana plants having an ALT-2-01 nucleotide sequence located in the chloroplast introduced (At chloroplastic ALT-2-01); and the plants that were transformed with the recombinant expression vector DBN100636 were Arabidopsis thaliana plants having an ALT-3-01 nucleotide sequence located in the cytoplasm introduced (At cytoplasmic ALT-3-01), and the plants that were transformed with the recombinant expression vector DBN100635 were Arabidopsis thaliana plants having an ALT-3-01 nucleotide sequence located in the chloroplast introduced (At chloroplastic ALT-3-01). The herbicide tolerance effects of At cytoplasmic ALT-1-01 T1 plants, At chloroplastic ALT-1-01 T1 plants, At cytoplasmic ALT-2-01 T1 plants, At chloroplastic ALT-2-01 T1 plants, At cytoplasmic ALT-3-01 T1 plants, At chloroplastic ALT-3-01 T1 plants and wild-type Arabidopsis thaliana plants on Sulfometuron-methyl were detected (14 days after sowing), respectively.
(§2) At cytoplasmic ALT-1-01 T1 plants, At chloroplastic ALT-1-01 T1 plants, At cytoplasmic ALT-2-01 T1 plants, At chloroplastic ALT-2-01 T1 plants, At cytoplasmic ALT-3-01 T1 plants, At chloroplastic ALT-3-01 T1 plants and wild-type Arabidopsis thaliana plants were sprayed with Sulfometuron-methyl (30 g ai/ha, 1-fold field concentration) and a blank solvent (water), respectively. Plants were counted for the resistance situations 14 days after spraying: those having a consistent growth status with the blank solvent (water) group after 14 days were classified as highly resistant plants, those having a bolting height less than ½ of that of the blank solvent (water) group after 14 days were classified as moderately resistant plants, those still not capable of bolting after 14 days were classified as poorly resistant plants, and those dead after 14 days were classified as non-resistant plants. Since each Arabidopsis thaliana T1 plant was an independent transformation event, a significant difference in individual T1 responses could be expected at a given dose.
(§3) At cytoplasmic ALT-1-01 T1 plants, At chloroplastic ALT-1-01 T1 plants, At cytoplasmic ALT-2-01 T1 plants, At chloroplastic ALT-2-01 T1 plants, At cytoplasmic ALT-3-01 T1 plants, At chloroplastic ALT-3-01 T1 plants and wild-type Arabidopsis thaliana plants in Example 4 were sprayed with iodosulfuron-methyl (10 g ai/ha, 1-fold field concentration), mesosulfuron (14 g ai/ha, 1-fold field concentration) and oxasulfuron (60 g ai/ha, 1-fold field concentration), respectively, in addition to Sulfometuron-methyl (30 g ai/ha, 1-fold field concentration) and the blank solvent (water). […]

[2] = test system: transgenic Arabidopsis thaliana T1 plants (ALT-1-01, ALT-2-01, ALT-3-01; cytoplasmic or chloroplastic); assay: Herbicide tolerance of transgenic Arabidopsis thaliana T1 plants expressing thifensulfuron hydrolase, resistance classes counted after spraying; conditions: for Highly resistant (number of plants with growth status consistent with blank solvent group) / Moderately resistant (number of plants with bolting height less than 1/2 of blank solvent group) / Non-resistant (number of plants dead) / Poorly resistant (number of plants still not capable of bolting): 1-fold field concentration (g ai/ha: Sulfometuron-methyl 30, iodosulfuron-methyl 10, mesosulfuron 14, oxasulfuron 60), 14 days after spraying; for ability of the transformed plants to degrade the herbicide: all the transformed Arabidopsis thaliana T1 plants (ALT-1, ALT-2 and ALT-3), 1-fold field concentration
Source text: as §1, §2, §3

[3] = test system: transgenic soybean plants (Gm cytoplasmic/chloroplastic ALT-1-01, ALT-2-01, ALT-3-01); assay: Glyphosate tolerance of transgenic soybean plants (ALT + EPSPS), herbicide damage rate; conditions: 840 g ae/ha, 1-fold field concentration, 14 days after spraying
Source text: (§4) The herbicide tolerance effects of Gm cytoplasmic ALT-1-01 soybean plants, Gm chloroplastic ALT-1-01 soybean plants, Gm cytoplasmic ALT-2-01 soybean plants, Gm chloroplastic ALT-2-01 soybean plants, Gm cytoplasmic ALT-3-01 soybean plants, Gm chloroplastic ALT-3-01 soybean plants and wild-type soybean plants on glyphosate were detected (at seedling stage), respectively.
(§5) 2 strains from Gm cytoplasmic ALT-1-01 soybean plants, Gm chloroplastic ALT-1-01 soybean plants, Gm cytoplasmic ALT-2-01 soybean plants, Gm chloroplastic ALT-2-01 soybean plants, Gm cytoplasmic ALT-3-01 soybean plants, Gm chloroplastic ALT-3-01 soybean plants and wild-type soybean plants were respectively taken each, and 10-15 plants were selected from each strain and tested. The plants above were sprayed with glyphosate (840 g ae/ha, 1-fold field concentration) and a blank solvent (water). The herbicide damage rate was measured for each plant according to the phytotoxicity symptoms 14 days after spraying (14 DAT): herbicide damage rate (%)=Σ(number of damaged plants at the same level×level number)/(total number of plants×highest level).

[4] = test system: wild-type soybean plants (CK1); assay: Glyphosate tolerance of wild-type soybean plants, herbicide damage rate; conditions: 840 g ae/ha, 1-fold field concentration, 14 days after spraying
Source text: as §4, §5

[5] = At chloroplastic ALT-1-01 T1 plants
[6] = At chloroplastic ALT-2-01 T1 plants
[7] = At chloroplastic ALT-3-01 T1 plants
[8] = At cytoplasmic ALT-1-01 T1 plants
[9] = At cytoplasmic ALT-2-01 T1 plants
[10] = At cytoplasmic ALT-3-01 T1 plants

Compound	Highly resistant (number of plants with growth status consistent with blank solvent group) [1]	Moderately resistant (number of plants with bolting height less than 1/2 of blank solvent group) [1]	Non-resistant (number of plants dead) [1]	Poorly resistant (number of plants still not capable of bolting) [1]	Highly resistant (number of plants with growth status consistent with blank solvent group) [2, 5]	Moderately resistant (number of plants with bolting height less than 1/2 of blank solvent group) [2, 5]	Non-resistant (number of plants dead) [2, 5]	Poorly resistant (number of plants still not capable of bolting) [2, 5]	Highly resistant (number of plants with growth status consistent with blank solvent group) [2, 6]	Moderately resistant (number of plants with bolting height less than 1/2 of blank solvent group) [2, 6]	Non-resistant (number of plants dead) [2, 6]	Poorly resistant (number of plants still not capable of bolting) [2, 6]	Highly resistant (number of plants with growth status consistent with blank solvent group) [2, 7]	Moderately resistant (number of plants with bolting height less than 1/2 of blank solvent group) [2, 7]	Non-resistant (number of plants dead) [2, 7]	Poorly resistant (number of plants still not capable of bolting) [2, 7]	Highly resistant (number of plants with growth status consistent with blank solvent group) [2, 8]	Moderately resistant (number of plants with bolting height less than 1/2 of blank solvent group) [2, 8]	Non-resistant (number of plants dead) [2, 8]	Poorly resistant (number of plants still not capable of bolting) [2, 8]	further results
COC(=O)c1ccc(I)cc1S(=O)(=O)NC(=O)Nc1nc(C)nc(OC)n1 [iodosulfuron-methyl]	0	0	29	0	0	0	30	0	0	0	31	0	0	0	32	0	0	0	29	0	Highly resistant (number of plants with growth status consistent with blank solvent group) [2, 9]: 0; Moderately resistant (number of plants with bolting height less than 1/2 of blank solvent group) [2, 9]: 0; Non-resistant (number of plants dead) [2, 9]: 30; Poorly resistant (number of plants still not capable of bolting) [2, 9]: 0; Highly resistant (number of plants with growth status consistent with blank solvent group) [2, 10]: 0; Moderately resistant (number of plants with bolting height less than 1/2 of blank solvent group) [2, 10]: 0; Non-resistant (number of plants dead) [2, 10]: 30; Poorly resistant (number of plants still not capable of bolting) [2, 10]: 0; ability of the transformed plants to degrade the herbicide [2]: did not exhibit the ability to degrade
Cc1cc(C)nc(NC(=O)NS(=O)(=O)c2ccccc2C(=O)OC2COC2)n1 [oxasulfuron]	0	0	28	0	0	0	30	0	0	0	30	0	0	0	31	0	0	0	28	0	Highly resistant (number of plants with growth status consistent with blank solvent group) [2, 9]: 0; Moderately resistant (number of plants with bolting height less than 1/2 of blank solvent group) [2, 9]: 0; Non-resistant (number of plants dead) [2, 9]: 30; Poorly resistant (number of plants still not capable of bolting) [2, 9]: 0; Highly resistant (number of plants with growth status consistent with blank solvent group) [2, 10]: 0; Moderately resistant (number of plants with bolting height less than 1/2 of blank solvent group) [2, 10]: 0; Non-resistant (number of plants dead) [2, 10]: 30; Poorly resistant (number of plants still not capable of bolting) [2, 10]: 0; ability of the transformed plants to degrade the herbicide [2]: did not exhibit the ability to degrade
COc1cc(OC)nc(NC(=O)NS(=O)(=O)c2cc(CNS(C)(=O)=O)ccc2C(=O)O)n1 [mesosulfuron]	0	0	28	0	0	0	32	0	0	0	30	0	0	0	32	0	0	0	29	0	Highly resistant (number of plants with growth status consistent with blank solvent group) [2, 9]: 0; Moderately resistant (number of plants with bolting height less than 1/2 of blank solvent group) [2, 9]: 0; Non-resistant (number of plants dead) [2, 9]: 32; Poorly resistant (number of plants still not capable of bolting) [2, 9]: 0; Highly resistant (number of plants with growth status consistent with blank solvent group) [2, 10]: 0; Moderately resistant (number of plants with bolting height less than 1/2 of blank solvent group) [2, 10]: 0; Non-resistant (number of plants dead) [2, 10]: 30; Poorly resistant (number of plants still not capable of bolting) [2, 10]: 0; ability of the transformed plants to degrade the herbicide [2]: did not exhibit the ability to degrade
O=C(O)CNCP(=O)(O)O [glyphosate, N-phosphonomethylglycine]																					glyphosate herbicide damage rate ([3]; Gm chloroplastic ALT-1-01 soybean plants): ~0%; glyphosate herbicide damage rate ([3]; Gm chloroplastic ALT-2-01 soybean plants): ~0%; glyphosate herbicide damage rate ([3]; Gm chloroplastic ALT-3-01 soybean plants): ~0%; glyphosate herbicide damage rate ([3]; Gm cytoplasmic ALT-1-01 soybean plants): ~0%; glyphosate herbicide damage rate ([3]; Gm cytoplasmic ALT-2-01 soybean plants): ~0%; glyphosate herbicide damage rate ([3]; Gm cytoplasmic ALT-3-01 soybean plants): ~0%; glyphosate herbicide damage rate [4]: not less than 90%
